According to the METLIN SMRT retention time set (Domingo-Almenara et al. 2019):

assay: gradient 5% acetonitrile 3 min, to 50% in 2 min, to 85% in 15 min, held 3 min, 100 µL/min; settings: column: Zorbax Extend-C18 2.1 x 50 mm; eluents: water / acetonitrile, 0.1% formic acid
How it was run: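 Retention times of pure standards were taken from adduct peaks that were selected by computer and manually inspected. Over 3 months, mixtures of ~100 molecules were run by HPLC–quadrupole time-of-flight mass spectrometry in positive and negative ionization mode. The Zorbax Extend-C18 column (2.1 × 50 mm, 1.8 μm) ran at 100 μL/min in water and acetonitrile, each containing 0.1% formic acid, with 40 μL dead volume and 900 μL dwell volume.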

Row | RP-LC retention time | SMILES
1 | 575 s | CCOC(=O)c1[nH]c2ccc(OC)cc2c1NC(=O)CN(C)C
2 | 704 s | CCC1CCCCN1CCCNC(=O)Cn1ccc2cc(S(=O)(=O)N3CCCCCC3)ccc21 (stereo not given)
3 | 1340 s | CCCOc1nc2ccccc2nc1N1CCCC(C(=O)Nc2cccc(C(=O)OCC)c2)C1 (stereo not given)
4 | 980 s | CCCn1cc(S(=O)(=O)Nc2ccc(Cl)cc2F)c2cccnc21
5 | 1190 s | Cc1ccc(C)c(-c2coc(-c3ccc(NC(=O)NCc4cccc(F)c4)cc3)n2)c1
6 | 762 s | CCC(C)C(NC(=O)Cc1ccc(OC)c(Cl)c1)C(=O)Nc1nc2ccccc2[nH]1 (stereo not given)
7 | 825 s | O=C(Cc1c[nH]c2ccccc12)N1CCc2cc(-c3ccno3)ccc21
8 | 1050 s | Cc1ccc(-c2cc(NC(=O)c3cccc(N(C)C)c3)on2)s1
9 | 865 s | CNC(=O)c1cc2c(C)nn(-c3cccc(F)c3)c2s1
10 | 590 s | Cc1cnn(Cc2c(C(=O)N3C[C@@H](C(N)=O)[C@H](c4nc(C)no4)C3)noc2C)c1
11 | 662 s | COc1ccc(S(=O)(=O)Nc2cc(-c3cn4cccc(C)c4n3)ccc2C)cc1OC
12 | 1000 s | CCOc1cccc(-c2noc(Cn3c(=O)n(-c4ccc(OC)cc4)c(=O)c4sccc43)n2)c1
13 | 616 s | COc1cccc(NC(=O)N2CCN(c3cnn4c(C)nnc4c3)CC2)c1
14 | 720 s | Cc1[nH]c(C)c(S(=O)(=O)N2CCC(C(=O)NC3CCCCC3)CC2)c1C(=O)N1CCCCC1
15 | 935 s | COc1ccc(-c2nn3c(-c4ccccc4F)nnc3s2)cc1
16 | 655 s | CC1(C(=O)Nc2ccccc2)Oc2cccnc2NC1=O (stereo not given)
17 | 1020 s | Cc1noc(C2CN(CCCc3ccccc3)CC23CCCC3)n1 (stereo not given)
18 | 930 s | Cc1ccc(NC(=O)C2CCCN(c3ncnc4c3nc3n4CCCCC3)C2)c(Br)c1 (stereo not given)

Row | RP-LC retention time | SMILES
19 | 1050 s | Fc1ccc(-n2cc(-c3noc(-c4cccc(F)c4)n3)nn2)cc1
20 | 694 s | CCOCC(=O)N1CCC2(CC1)C(=O)N(C)c1ccccc12
21 | 844 s | COCc1cc(=O)n(CC(=O)Nc2cc(C)ccc2C)c(N2CCOCC2)n1
22 | 762 s | CCOCCCNC(=O)c1nnc(-c2ccc(S(=O)(=O)N3CCCCC3)cc2)o1
23 | 885 s | COc1ccc(-c2nnc(-c3cccc(S(=O)(=O)N4CCCC4)c3)o2)cc1OC
24 | 755 s | O=C(Nc1ccc2c(c1)CCN(Cc1ncn[nH]1)C2)c1ccccc1-c1ccc(C(F)(F)F)cc1
25 | 779 s | CCCCNC(=O)c1cn(-c2cc(-c3nc(C)no3)ccn2)cn1
26 | 921 s | CCn1c(=O)sc2cc(S(=O)(=O)N3CCC(C(=O)Nc4ccc(F)cc4F)CC3)ccc21
27 | 515 s | CCn1nc(C)c(CCN(C)C(=O)Cn2nc3n(c2=O)CCC(N)CC3)c1C (stereo not given)
28 | 845 s | O=C(c1ccc(F)c(F)c1)N1CCOC(c2ccccc2)C1 (stereo not given)
29 | 901 s | Cc1ccc(Cl)cc1NS(=O)(=O)c1cc2c(s1)CCN(C(=O)C1CC1)C2
30 | 960 s | COc1ccc(-c2[nH]c3ccccc3c2C(C[N+](=O)[O-])c2cccs2)cc1OC (stereo not given)
31 | 671 s | CCn1ccc2cc(S(=O)(=O)N3CCC(C(=O)N4CCN(c5ccccc5)CC4)CC3)ccc21
32 | 804 s | CN(CC1CCOC1)S(=O)(=O)Cc1cccc(Cl)c1 (stereo not given)
33 | 832 s | COc1cccc(OC)c1C(=O)Nc1nnc(SCc2nnc(-c3ccccc3)o2)s1
34 | 777 s | Cc1cccc(Cn2nc3c(S(=O)(=O)N4CCOCC4)cccn3c2=O)c1
35 | 652 s | O=C(NCCn1ncccc1=O)C1(c2cccs2)CCCC1
36 | 938 s | Cc1noc(/C=C\c2ccc(S(=O)(=O)N3CCCCC3C)cc2)c1NC(=O)C1CC1 (stereo not given)

More lines, now with the values behind:

Row | SMILES | RP-LC retention time
37 | Cc1ccc(NC(=O)Cn2c(=O)c3cc(-c4cccs4)nn3c3ncccc32)cc1F | 924 s
38 | COc1ccc(-c2csc(NC(=O)Cc3csc(-c4ccccc4)n3)n2)cc1 | 1090 s
39 | CC(C)Oc1ccc(-c2noc(Cn3c(=O)n(-c4ccc(Cl)cc4)c(=O)c4sccc43)n2)cc1 | 1140 s
40 | CCOC(=O)C(C)c1c(C(=O)c2ccc(C)nc2)c2ccccc2n1C (stereo not given) | 1020 s
41 | O=C(NCCc1csc(-c2ccc(F)cc2)n1)c1ccco1 | 868 s
42 | CCNC(=O)N1CCC(c2noc(-c3cccnc3)n2)C1 (stereo not given) | 605 s
43 | COc1ccc(Cl)cc1NC(=O)NC1CCN(c2ccccc2)C1=O (stereo not given) | 873 s
44 | CC(C)NC(=O)N1CCCC(c2cccc(C(=O)NCC3CCCCC3)c2)C1 (stereo not given) | 945 s
45 | CC(C)NC(=O)N(C1CC1)C1CCOC2(CCN(C(=O)C3CC3)CC2)C1 (stereo not given) | 688 s
46 | O=S(=O)(CCc1ccccc1)NCC(O)Cc1ccccc1 (stereo not given) | 792 s
47 | Cc1ccc2c(c1)N(Cc1ccc(F)cc1)N=C(C(=O)N1CCOCC1)S2(=O)=O | 839 s
48 | CC(NC(=O)Cc1nnc(-c2ccc3ncccc3c2)o1)c1ccccc1 (stereo not given) | 690 s
49 | Cc1noc(C)c1C(=O)N1CCCC1Cc1noc(C2CCCC2)n1 (stereo not given) | 820 s
50 | O=C(Nc1cc(F)cc(F)c1)c1ccc(N2CCN(c3ccccn3)CC2)c([N+](=O)[O-])c1 | 698 s
51 | CCc1ccc2c(-c3cccc(Cl)c3)nc(=O)n(CC)c2n1 | 1120 s
52 | COc1ccc(-c2noc(C3(NC(=O)c4cc(C)cc(C)c4)CCCCC3)n2)cc1 | 1250 s
53 | COCCN1CCn2cc(S(=O)(=O)Nc3ccc(C)c(F)c3)cc2C1=O | 740 s
54 | COc1ccc(-c2csc3c(=O)n(CC(=O)OC(C)(C)C)cnc23)cc1 | 1180 s
55 | CCc1c(C(=O)O)nnn1-c1cccc(Br)c1 | 757 s
56 | COCCN1C(=O)CCc2cc(NC(=O)c3ccc(Cl)s3)ccc21 | 958 s
57 | O=C(C(Cl)Cl)N1CC2CCC(CC2)C1 | 956 s
58 | CCCNc1cc(N2CCC(CCC(=O)NC3CCN(C(=O)OCC)CC3)CC2)ncn1 | 627 s
59 | Cc1cc(C)c2c(N3CCCC3)nc(C(=O)N(C)Cc3ccccc3)nc2n1 | 654 s
60 | COc1ccc(-c2noc(-c3ccc(N4CCN(c5ncccn5)CC4)nc3)n2)cc1 | 1150 s
61 | CC1(C)COCN1S(=O)(=O)c1ccc(C(=O)Nc2nnc(-c3ccc(F)cc3)o2)cc1 | 811 s
62 | COc1ccc(C2(C(=O)N3CCC(c4nc(-c5cccn5C)no4)C3)CC2)cc1 (stereo not given) | 910 s
63 | O=C(NCCc1csc(-c2ccccc2)n1)c1cccs1 | 860 s

Row | SMILES | RP-LC retention time
64 | COc1ccc(-c2noc(C3CCCN3C(=O)c3ccc(N(C)C)cc3)n2)cc1OC (stereo not given) | 881 s
65 | O=C(c1cn2ccccc2n1)N1CCN(c2ccccc2F)CC1 | 652 s
66 | Cc1ccc(S(=O)(=O)NCCc2cn(CC(C)C)c3ncccc23)cc1C | 978 s
67 | O=C(Cc1nnc2cc(-c3nc(C4CC4)no3)ccn12)N1CCCCCC1 | 685 s
68 | CC(C)n1cnc2cc(CNC(=O)c3ccco3)ccc21 | 568 s
69 | CCn1ccc(-c2nc(-c3ccc4c(c3)nnn4CCN3CCCCC3)no2)n1 | 623 s
70 | COc1ccc(CC(=O)N2CCc3c(c(CO)nn3CC3CC3)C2)cc1 | 715 s
71 | O=C(O)c1cccc(Nc2c(-c3cccc(O)c3)nc3cnccn23)c1 | 633 s
72 | CN1CCN(C(=O)CN2C(=O)C3CCCCN3c3ccc(S(=O)(=O)N4CCCC4)cc32)CC1 (stereo not given) | 631 s
73 | Cn1c(CNC(=O)c2cn3ccccc3n2)nc2ccccc21 | 564 s
74 | COc1ccc(CNC(=O)C2CCN(c3ncnc4c3oc3ccccc34)CC2)c(OC)c1 | 752 s
75 | CCCN1CCN(C(=O)Cn2ccc3ccc(-c4nnc(C)o4)cc32)CC1 | 589 s
76 | Cc1nc(C)c(CCNS(=O)(=O)c2cc(Cl)ccc2Cl)s1 | 683 s
77 | CC1CCC(NC(=O)C2CCN(C(=O)c3ncn4c3COC(c3ccccc3)C4)CC2)CC1 (stereo not given) | 816 s
78 | O=C(c1ccc(-c2cccs2)nc1)N1CCN(c2ccccn2)CC1 | 604 s
79 | Cc1noc(C)c1CC(=O)NCCc1noc(C2CC2)n1 | 628 s
80 | Cc1c(C(C)(C(=O)O)c2c(C)n(C)c3ccccc23)c2ccccc2n1C | 677 s
81 | CCCn1c(C)cnc1C1CN(S(=O)(=O)c2ccc(Cl)cc2)C1 | 678 s
82 | CCOC(=O)CCNC(=O)NCC1CC(=O)N(c2ccc(F)cc2)C1 (stereo not given) | 629 s
83 | COc1cc2c(cc1CNC(=O)COc1ccc(Cl)c(C)c1)OCCCO2 | 1010 s
84 | CCC(C(=O)NCCN(C)C)n1c2ccccc2c2cnn(C)c(=O)c21 (stereo not given) | 618 s
85 | Cc1sc(NC(=O)c2cccc(Br)c2)nc1-c1ccc2c(c1)N(C)C(=O)CO2 | 943 s
86 | COc1ccc(C(=O)c2c(C)n(CCN3CCOCC3)c3ccccc23)cc1 | 780 s
87 | CC(=O)N1CCC2(CC1)CC(CC(=O)N(C)C)CCO2 (stereo not given) | 587 s
88 | COc1ccc(OC)c(CNC(=O)Cc2nnc(-c3cccc(Br)c3)o2)c1 | 796 s
89 | Cc1ccc(Cl)cc1NC(=O)C1CCCN(c2nnc(C)c3c(C)n(-c4ccccc4)nc23)C1 (stereo not given) | 802 s
90 | COc1ccc(NC(=O)C2CCCN(c3nc4cccnc4s3)C2)cc1 (stereo not given) | 797 s
